Source: ChEMBL document CHEMBL4346743, “Design and synthesis of biotinylated Hexylselen as a probe to identify KGA allosteric inhibitors by a convenient biomolecular interaction assay” (Bioorg Med Chem Lett, 2019)
pIC50, pKd: −log10 of the molar value. Active and inactive are the calls of the source. The rule behind the calls is not given here.

Assays:
[1] = biological target: T1, Glutaminase kidney isoform, mitochondrial (Homo sapiens, UniProt O94925); experiment: Allosteric inhibition of human KGA assessed as reduction in glutamate formation using glutamine as substrate pretreated with enzyme for 15 mins followed by substrate addition and measured after 3 hrs by KGA/GDH coupled assay
T1 sequence (O94925 whole entry): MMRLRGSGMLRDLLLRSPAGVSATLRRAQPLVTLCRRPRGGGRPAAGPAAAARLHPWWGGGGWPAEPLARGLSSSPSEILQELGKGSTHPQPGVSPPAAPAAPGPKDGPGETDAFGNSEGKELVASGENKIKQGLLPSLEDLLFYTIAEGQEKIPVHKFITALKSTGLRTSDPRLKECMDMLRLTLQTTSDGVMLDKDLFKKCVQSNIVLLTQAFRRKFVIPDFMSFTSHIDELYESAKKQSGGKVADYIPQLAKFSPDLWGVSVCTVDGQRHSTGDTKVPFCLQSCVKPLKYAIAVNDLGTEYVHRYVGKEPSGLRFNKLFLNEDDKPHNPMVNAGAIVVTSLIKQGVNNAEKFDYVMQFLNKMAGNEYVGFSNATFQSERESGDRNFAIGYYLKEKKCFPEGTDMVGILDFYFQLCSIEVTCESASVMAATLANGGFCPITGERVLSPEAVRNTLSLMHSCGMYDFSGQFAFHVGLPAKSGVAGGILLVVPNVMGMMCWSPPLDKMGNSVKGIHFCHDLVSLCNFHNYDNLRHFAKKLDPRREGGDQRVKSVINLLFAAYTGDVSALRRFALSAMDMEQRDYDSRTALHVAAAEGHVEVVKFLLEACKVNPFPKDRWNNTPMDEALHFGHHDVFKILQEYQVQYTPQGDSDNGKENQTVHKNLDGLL

[2] = biological target: T1, Glutaminase kidney isoform, mitochondrial; experiment: Binding affinity to human KGA assessed as dissociation constant
[3] = biological target: T2, Glutaminase kidney isoform, mitochondrial (Homo sapiens) (UniProt O94925); experiment: Binding affinity to human KGA assessed as association rate constant at 33 uM
T2 sequence (whole entry): T1 sequence (O94925 whole entry)

[4] = biological target: T2, Glutaminase kidney isoform, mitochondrial (Homo sapiens); experiment: Binding affinity to human KGA assessed as dissociation rate constant at 33 uM
[5] = biological target: T2, Glutaminase kidney isoform, mitochondrial (Homo sapiens); experiment: Competitive binding affinity to human KGA in presence of BPTES by biolayer interferometry
[6] = biological target: T2, Glutaminase kidney isoform, mitochondrial (Homo sapiens); experiment: Competitive binding affinity to human KGA after 1 hr in presence of ebselen by biolayer interferometry

Compound `COc1ccc2[se]n(CCCCCCn3[se]c4ccc(OCCCCC[C@@H]5SC[C@@H]6NC(=O)N[C@@H]65)cc4c3=O)c(=O)c2c1` has a pIC50 [1] of 7.14, a pKd [2] of 6.85 and a Ka [3] of 1.4 ×10⁴ /Ms. For the same compound, the Kdiss [4] was 2 ×10⁻³ /s, the Activity [5] was “Active” and the Activity [6] was “inactive”.
